Assay results reported in patent US20060235062A1, “Novel heterocyclic analogs of diphenylethylene compounds” (THERACOS, INC., priority 2002, published 2006).
Where two headings read alike, the source gives them in different places.

Tests used:
[1] = tested on: ob/ob mice; test: Antihyperglycemic activity and serum parameters in ob/ob mice; format: in vivo; parameters: decrease in triglyceride as compared to the control / lowering of FFA compared to the control / decrease in the GHb level compared to the control / reduction of serum insulin / reduction of triglycerides / reduction of free fatty acid (FFA) levels: concentration or dose not given beside the values
[2] = tested on: IL-6; test: LPS-induced IL-6 production in RAW cells (ELISA); format: cell-based; conditions: RAW cells, 0.1, 1, 10, 50 or 100 pM, FIG. 10
[3] = tested on: SJL-/J mice; test: Experimental allergic encephalomyelitis (EAE) in mice; format: in vivo; conditions: 200 μg once daily subcutaneous, FIG. 14
[4] = tested on: HepG2 cells; test: Glycogen synthesis in HepG2 cells; format: cell-based; conditions: HepG2, absence of insulin
[5] = molecular target: T1, Human PPAR-γ2 (Homo sapiens, UniProt P37231); test: PPAR-gamma mediated transactivation of PPRE-luciferase reporter; format: cell-based
T1 construct: inserting the PPARγ2 cDNA coding region into pcDNA3.1+ vector; expressed in transfected cells; host or cells: HEK293 cells (ATCC)
T1 sequence (P37231 1-505): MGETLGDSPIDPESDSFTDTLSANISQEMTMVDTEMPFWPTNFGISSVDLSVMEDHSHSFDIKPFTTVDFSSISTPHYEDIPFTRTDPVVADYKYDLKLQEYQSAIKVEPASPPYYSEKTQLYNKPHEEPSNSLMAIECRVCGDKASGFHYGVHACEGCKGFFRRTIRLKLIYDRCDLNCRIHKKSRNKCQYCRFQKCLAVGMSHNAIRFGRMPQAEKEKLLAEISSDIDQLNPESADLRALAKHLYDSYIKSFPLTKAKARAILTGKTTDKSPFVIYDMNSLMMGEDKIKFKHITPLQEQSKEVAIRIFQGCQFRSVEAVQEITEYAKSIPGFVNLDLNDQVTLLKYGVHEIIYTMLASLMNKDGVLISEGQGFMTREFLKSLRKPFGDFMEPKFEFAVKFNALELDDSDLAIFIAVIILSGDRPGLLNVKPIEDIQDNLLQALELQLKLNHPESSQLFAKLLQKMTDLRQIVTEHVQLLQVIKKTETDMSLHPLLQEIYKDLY
Experimental: Human PPAR-γ2 expression vector was constructed by inserting PPAR-γ2 encoding region into pcDNA3.1+ vector (Invitrogen, Carlsbad, Calif.). Luciferase reporter vector was constructed by ligating PPRE response element adjacent to the upstream of Firefly luciferase coding region. Control vector, pRL-SV40 expressing Renilla luciferase was purchased from Promega (Madison, Wis.).
About 2.7×10^4 293 cells (ATCC, Manassas, Va.) were plated into a 35 mm culture well and maintained in Eagle's Minimal Essential Medium (ATCC, Manassas, Va.) supplemented with 10% heat inactivated horse serum (ATCC, Manassas, Va.) for 24 hours. Expression, reporter and control vectors (2.5 ng control and 100 ng others per culture well) were transfected by LI[…]™ Reagent (Invitrogen, Carlsbad, Calif.). Transfection reagent and DNA were prepared according to manufacture's recommendations and incubated with cells for 3 hours followed by adding equal volume EMEM supplemented with 20% horse serum. Twenty-four hours after transfection, cells were treated with vehicle or compounds at indicated final concentration for 24 hours. Final concentration of vehicle was 0.001% DMSO (Sigma, ST Louis, Mo.) in medium. Vehicle and compound treatment were all conducted in triplicate. Each culture well was then assayed for a response characterized by increased Firefly luciferase activity normalized with Renilla luciferase activity.
Assays for Firefly luciferase activity and Renilla luciferase activity followed the standard protocol of Dual-luciferase Reporter® Assay System (Promega, Madison, Wis.). Briefly, 400 μl Passive Lysis Buffer was added into each culture well and all wells were placed on a shaker for 15 minutes. Five μl cell lysate of each well was added to a reaction tube. Luciferase reagent II and Stop & Glo® were injected into the reaction tube sequentially by Sirius Luminometer (Berthold Detection Systems, Pforzheim, Germany). Final reporter activity was calculated as the ratio of Firefly luciferase activity over by Renilla luciferase activity.
Human PPARγ2 expression vector was constructed by inserting the PPARγ2 cDNA coding region into pcDNA3.1+ vector (Invitrogen, Carlsbad, Calif.). The PPRE-luciferase reporter gene was the kind gift of Dr. Kenneth Feingold. The control vector, pRL-SV40 containing the Renilla luciferase cDNA was purchased from Promega (Madison, Wis.). About 2.7×10^4 HEK293 human embryonal kidney cells (ATCC) were plated into a 35-mm tissue culture dish and maintained in Eagle Modified Essential Medium (EMEM, ATCC) containing 10% heat-inactivated horse serum for 24 h. Expression, reporter (100 ng/dish) and control (2.5 ng/dish) vectors were transfected using LI[…]™ Reagent (GibcoBRL) according to manufacturer's recommendation. At 24 h after transfection, cells were treated with vehicle (0.001% DMSO in medium) or compounds at the indicated concentration and incubated for 24 h. Each treatment was conducted in triplicate. Each culture dish was assayed for firefly luciferase activity normalized by Renilla luciferase activity to account for differences in transfection efficiency. Luciferase activity was measured using the Dual-luciferase Reporter® Assay System (Promega) and a Sirius luminometer (Berthold Detection System, Pforzheim, Germany).

[6] = tested on: AIA rats; test: Cancellous bone loss in adjuvant induced arthritic (AIA) rats, MicroCT of right proximal tibia; format: in vivo, male Lewis rats
[7] = tested on: ob/ob mice; test: Liver enzymes AST/GOT and ALT/GPT in sera of ob/ob mice; format: in vivo; conditions: 21 days, orally 50 mg/kg, vs untreated or troglitazone-treated mice
[8] = tested on: NF-kB p65; test: NF-kB p65 activation in LPS-stimulated RAW cells (ELISA); format: cell-based; conditions: 10 μM, 1 μg/ml LPS 15 min, FIG. 15
[9] = after fourteen days of treatment, p<0.05 vs vehicle
[10] = ob/ob mice, 50 mg/kg, 14 days, FIG. 17A

## COC(=O)C(=Cc1cc(OC)cc(OC)c1)c1ccc(Oc2ccc(CC3SC(=O)NC3=O)cc2)cc1 (stereo not shown) [Compound 11, 3-(3,5-Dimethoxyphenyl)-2-{4-[4-(2,4-dioxothiazolidin-5-ylmethyl)-phenoxy]-phenyl}-acrylic acid methyl ester]
[1]; [9]
  reduction of free fatty acid (FFA) levels: 33%
  reduction of serum insulin: 58%
  reduction of triglycerides: 65%
[1]; after fourteen days of treatment, reduced from 5.2%, p=0.15, FIG. 18
  glycosylated hemoglobin after treatment: 3.8%
[1]; ob/ob mice (n=8), three different doses, FIG. 19
  dose response of glucose lowering: dose dependent glucose lowering effect
[1]; ob/ob mice, 50 mg/kg oral once daily, 8 to 9 days
  weight gain in treated and control animals: similar
[1]; ob/ob mice, 50 mg/kg oral once daily, 8 to 9 days, FIG. 21
  decrease in blood glucose levels: 59 % vs. baseline
[1]; [10]
  normalization of blood glucose levels: normalized by three days
  time to significant decrease of blood glucose levels: ≤ 48 h
[1]; ob/ob mice, 50 mg/kg, 14 days, FIG. 17B
  body weight compared to vehicle treated group: did not see any increase
[1]; ob/ob mice, after 10 days of treatment, FIG. 6A
  drop of serum insulin: 58%
[1]; ob/ob mice, after 10 days of treatment, FIG. 6C
  lowering of FFA compared to the control: 33%
[1]; ob/ob mice, after 14 days of treatment, FIG. 6D
  decrease in the GHb level compared to the control: 1.3%
[1]; ob/ob mice, after treatment for 10 days, FIG. 6B
  decrease in triglyceride as compared to the control: 65%
[1]; ob/ob mice, oral 50 mg/kg, 15 days, FIG. 2A
  drop in blood glucose level: 62%
[1]; ob/ob mice, oral 50 mg/kg, FIG. 2B
  body weight, control vs treatment group: no significant increase
[1]; ob/ob mice, same glucose lowering at 10 mg/kg
  in vivo potency relative to rosiglitazone on a mole-per-mole basis (more potent): 46%
[2]
  inhibition of LPS-induced IL-6 production: better inhibitor of IL-6 than rosiglitazone
[3]
  amelioration of EAE (clinical score): highly effective
[4]; FIG. 25A
  14C-glucose incorporated into glycogen, dose response: dose-dependent increase
[4]; at 48 to 72 h, FIG. 25B
  maximal increase in glycogen synthesis over baseline: 3.1 fold
[5]
  transactivation potency less than that of rosiglitazone: ≤ 30 fold
[5]; HEK293 cells, human PPAR-gamma2, ± SE, n=5, FIG. 24, read-out: EC50 for transactivation of PPRE-Luc reporter
  EC50: 284 ± 36 nM
[5]; cells transfected with human PPAR-gamma2, 24 hours, non-linear regression, read-out: EC50, induction of PPAR-γ mediated luciferase activity
  EC50: 280 nM
[5]; in vitro transactivation assay
  PPAR-gamma transactivation potency relative to a comparator, in words: approximately one-thirtieth the activity of rosiglitazone
[6]; AIA rats, treated vs vehicle
  less cancellous bone lost: ~50%
[6]; right proximal tibia
  C.Th: 186 ± 25 μm
  Conn. Dens: 38.3 ± 19.7 l/mm3
  SMI (0-3): 2.8 ± 0.3
  Tb.N: 2.6 ± 0.5 l/mm
[6]; right proximal tibia, compound 11 50 mg/kg oral, etanercept 1.67 mg/kg i.p., once daily
  BV/TV: 13.7 ± 4.7%
[7]; FIG. 7A
  AST level: not elevated
[7]; FIG. 7B
  ALT level: did not elevate
[8]
  inhibition of the activation of NF-kB (p65): inhibited
